In patent US7270975B2, “Methods for regulating bud-hypha transitions and cAMP levels in Candida albicans” (priority 2001, dated 2007):
Like-named read-outs stand apart in the source and are kept apart here.

How the values were obtained:
[1] = tested on: C. albicans cap1/cap1 mutant strain, CAC1-1A; experiment: Bud-hypha transitions in liquid M199+serum with exogenous cAMP or dbcAMP; format: cell-based, Candida albicans; conditions: 10 mM
Method: (§1) To determine the effect of exogenous cAMP on bud-hypha transitions and filamenious growth of cap1/cap1 mutants, stationary phase yeasts were induced to form germ tubes and hyphae in liquid M199+serum (10^6 cells/ml) or in SLAD agar plates containing 10 mM cAMP or dbcAMP (Sigma). M199+serum containing cAMP or dbcAMP were incubated at 37° C. for 20 h and the frequency of germ tube formation was measured at various time points. SLAD plates containing cAMP or dbcAMP were incubated at 37° C. for 5 days, and filamentous growth was monitored daily.

[2] = tested on: C. albicans wild type CAP1/CAP1 strain, UnoPP-1; format: cell-based, Candida albicans; conditions: SLAD media, 10 mM, 37° C.
[3] = tested on: C. albicans cap1/cap1 pde2/pde2 mutant (BPS18); experiment: Filamentation in SLAD agar with or without dbcAMP; format: cell-based, Candida albicans; conditions: SLAD agar media, 10 mM dbcAMP
Method: Filamentous growth of each strain was induced at 37° C. for 6 days in solid Spider media (a11-15) and 2% agar media containing 4% bovine calf serum (a16-20).
For growth analysis in agar-containing media, stationary-phase yeasts were mixed (200 cells/25 ml of medium) with liquefied agar Spider medium (Liu et al., 266 SCIENCE 1723-1726 (1994)), SLAD (synthetic low ammonium dextrose)(Csank et al., 66 INFECT. IMMUN. 2713-2721 (1998)), and 2% agar containing 4% bovine calf serum (Lo et al., 90 CELL 939-949 (1997).

[4] = tested on: C. albicans cap1/cap1 mutant strain, CAC1-1A; experiment: Filamentous growth in SLAD agar with exogenous cAMP or dbcAMP; format: cell-based, Candida albicans; conditions: SLAD media, 10 mM, 37° C.; for colony morphology / filamentous growth of the cap1/cap1 mutant: 5 days
Method: as §1

[5] = tested on: C. albicans pde2/pde2 mutant (BPS4); conditions: for relative growth (CFU vs YNB alone) of the pde2/pde2 mutant: 6 h; for doubling time of pde2/pde2 mutants: 30° C.; for swollen pde2/pde2 mutant cells: YNB, 6 hours
Method: (§2) C. albicans strains were grown in YNB at 30° C. to middle-logarithmic phase, and then an equal number of cells were subcultured into YNB or YNB containing 4 mM and 40 mM cAMP and grown for 6 to 9 hours. Every hour during incubation, optical density and cell number/ml of cultures were measured by a photoelectric colorimeter (Klett-Summerson, Klett MFG. Co., Inc, NY, N.Y.) and hemacytometer, respectively. The percent of dead cells was determined by staining with 0.1% methylene blue (Sigma, St. Louis, Mo.). Also, cell morphologies were observed by microscopy. After a 6-hour incubation of each strain with YNB containing the indicated amounts of exogenous cAMP, culture samples were serially diluted, spread on YPD plates, and incubated for 2 days to determine the number of colony forming units (CFU). The percent relative growth was calculated by using the following formula: [(CFU of a strain incubated for 6 h in YNB having an indicated concentration of cAMP)/(CFU of the strain incubated for 6 h in YNB only)]×100%.

[6] = tested on: C. albicans strains with a wild type PDE2 gene (UnoPP-1, BPS1, BPS9); conditions: YNB, 4 mM and 40 mM cAMP
Method: as §2

[7] = tested on: PDE2 mRNA in C. albicans cap1/cap1 mutant; conditions: cAMP 10 mM, germ tube induction conditions, data not shown

Row | SMILES | hypha formation of the cap1/cap1 mutant in liquid media ([1]; 37° C., 10^6 cells/ml) | pseudohyphae detected in the presence vs absence of dbcAMP ([1]; at 3 h) | filamentous growth of the wild type strain [2] | filamentation of the cap1/cap1 pde2/pde2 mutant [3] | timing of onset of filamentous growth of the cap1/cap1 mutant [4] | colony morphology / filamentous growth of the cap1/cap1 mutant [4] | relative growth (CFU vs YNB alone) of the pde2/pde2 mutant ([5]; YNB containing 4 mM cAMP) | relative growth (CFU vs YNB alone) of the pde2/pde2 mutant ([5]; YNB containing 40 mM cAMP) [%] | doubling time of pde2/pde2 mutants ([5]; YNB with 4 mM cAMP) [h] | doubling time of pde2/pde2 mutants ([5]; YNB with 40 mM cAMP) [h] | swollen pde2/pde2 mutant cells ([5]; 4 mM cAMP) | swollen pde2/pde2 mutant cells ([5]; 40 mM cAMP) | relative growth rate of strains with a wild type PDE2 gene [6] | PDE2 mRNA expression in the cap1/cap1 mutant [7]
1 | CCCC(=O)Nc1ncnc2c1ncn2[C@@H]1O[C@@H]2COP(=O)(O)O[C@H]2[C@H]1OC(=O)CCC [dbcAMP, dibutyryl cAMP] | enhanced | twice as many pseudohyphae | slightly enhanced | increase filamentation of the cap1/cap1 pde2/pde2 mutant to near wild type levels | two | dramatically altered the colony morphology | – | – | – | – | – | – | – | –
2 | Nc1ncnc2c1ncn2[C@@H]1O[C@@H]2COP(=O)(O)O[C@H]2[C@H]1O [cAMP, cyclic AMP] | – | – | slightly enhanced | – | two | dramatically altered the colony morphology | about 70% | ~40 | 3.7 | 4.8 | ~50 % of cells | greater than 90 % of cells | not affected | the same with or without exogenous cAMP
